Measurements reported in patent US7074789B2, “Kinase inhibitors” (Amgen Inc., priority 1999, dated 2006).
Like-named read-outs stand apart in the source and are kept apart here.

Experiments:
Type in all cases: biochemical
EGFR = target: T1, EGFR (Homo sapiens, UniProt P00533); experiment: Kinase inhibition assay (33P transfer), EGFR; details: Table 2, kinase inhibition class; read-out: EGFR-1
T1 construct: Kinases are expressed as either kinase domains or full length constructs; made in house
Procedure, shortened: (§1)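 Radiometric format: recombinant tagged kinase (catalytic domain or whole protein, sometimes combined with regulatory polypeptides) phosphorylates immobilised poly(Glu,Tyr) 4:1 or poly(Arg,Ser) 3:1 using [33P]ATP. Wells are washed in 0.5% phosphoric acid, then counted. IC50 is taken where substrate labelling falls by half.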

Lck = target: T2, Lck (Homo sapiens, UniProt P06239); experiment: Kinase inhibition assay (33P transfer), Lck; details: read-out: Lck-1
T2 construct: Kinases are expressed as either kinase domains or full length constructs; made in house
T2 sequence (P06239 whole entry, species assumed, the tested form may be a part): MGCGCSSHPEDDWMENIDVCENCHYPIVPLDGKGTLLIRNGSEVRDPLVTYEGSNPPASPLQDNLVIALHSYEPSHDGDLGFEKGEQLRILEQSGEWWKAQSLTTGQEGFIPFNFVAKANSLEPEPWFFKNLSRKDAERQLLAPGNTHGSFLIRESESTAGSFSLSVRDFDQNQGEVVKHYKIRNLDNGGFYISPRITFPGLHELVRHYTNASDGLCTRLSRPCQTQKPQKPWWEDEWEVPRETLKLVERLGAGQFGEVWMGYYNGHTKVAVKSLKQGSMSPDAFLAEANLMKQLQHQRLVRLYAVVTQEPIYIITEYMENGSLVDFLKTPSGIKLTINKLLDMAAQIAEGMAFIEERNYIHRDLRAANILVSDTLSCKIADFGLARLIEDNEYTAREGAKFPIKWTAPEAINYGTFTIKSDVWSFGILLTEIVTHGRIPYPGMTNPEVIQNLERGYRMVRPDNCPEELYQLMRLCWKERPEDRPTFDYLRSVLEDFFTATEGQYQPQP
Procedure, shortened: (§2)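 Liquid scintillation counting of 33P on plate-bound synthetic substrates gives kinase activity. Plates are washed in 0.5% phosphoric acid first; kinases are tagged recombinant proteins from E. coli or baculovirus-infected High Five cells.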

Lyn = target: T3, Lyn (Homo sapiens, UniProt P07948); experiment: Kinase inhibition assay (33P transfer), Lyn; details: Table 6, Lyn-1 kinase inhibition class
T3 construct: Kinases are expressed as either kinase domains or full length constructs; made in house
T3 sequence (P07948 whole entry, species assumed, the tested form may be a part): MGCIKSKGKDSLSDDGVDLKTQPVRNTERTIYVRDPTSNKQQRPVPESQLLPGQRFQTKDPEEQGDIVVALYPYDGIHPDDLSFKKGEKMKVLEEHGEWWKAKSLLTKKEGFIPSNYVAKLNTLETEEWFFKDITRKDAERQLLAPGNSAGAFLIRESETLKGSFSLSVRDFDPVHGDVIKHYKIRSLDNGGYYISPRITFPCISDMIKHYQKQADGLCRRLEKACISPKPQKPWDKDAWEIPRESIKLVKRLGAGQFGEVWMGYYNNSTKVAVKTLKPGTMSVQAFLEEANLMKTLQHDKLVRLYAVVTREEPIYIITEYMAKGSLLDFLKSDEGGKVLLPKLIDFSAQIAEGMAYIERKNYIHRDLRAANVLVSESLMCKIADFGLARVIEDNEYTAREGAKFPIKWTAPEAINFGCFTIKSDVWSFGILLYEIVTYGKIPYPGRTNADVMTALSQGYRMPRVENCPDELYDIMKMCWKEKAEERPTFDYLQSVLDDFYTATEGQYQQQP
Description: (§3) The inhibitor compounds described herein are screened in the following manner. Kinases suitable for use in the following protocol to determine kinase activity of the compounds described herein include, -but are not limited to: Lck, Lyn, Src, Fyn, Syk, Zap-70, Itk, Tec, Btk, EGFR, ErbB2, Kdr, Flt-1, Flt-3, Tek, c-Met, InsR, and AKT.
(§4) Kinases are expressed as either kinase domains or full length constructs fused to glutathione S-transferase (GST) or polyHistidine tagged fusion proteins in either E. colior Baculovirus-High Five expression systems. They are purified to near homogeneity by affinity chromatography essentially as previously described (Lehr et al., 1996; Gish et al., 1995). In some instances, kinases are co-expressed or mixed with purified or partially purified regulatory polypeptides prior to measurement of activity.
(§5) Kinase activity and inhibition are measured essentially by established protocols (Braunwalder et al., 1996). Briefly, The transfer of ^33PO4 from ATP to the synthetic substrates poly(Glu, Tyr) 4:1 or poly(Arg, Ser) 3:1 attached to the bioactive surface of microtiter plates serves as the basis to evaluate enzyme activity. After an incubation period, the amount of phosphate transferred is measured by first washing the plate with 0.5% phosphoric acid, adding liquid scintillant, and then counting in a liquid scintillation detector. The IC50 is determined by the concentration of compound that causes a 50% reduction in the amount of […] incorporated onto the substrate bound to the plate.

FGFR1 = target: T4, FGFR1 (Homo sapiens, UniProt P11362); experiment: Kinase inhibition assay (33P transfer), FGFR1; details: read-out: FGFR1-1
T4 construct: Kinases are expressed as either kinase domains or full length constructs; made in house

c-Met = target: T5, c-Met (Homo sapiens, UniProt P08581); experiment: Kinase inhibition assay (33P transfer), c-Met; details: Table 2, kinase inhibition class; read-out: Met-1
T5 construct: Kinases are expressed as either kinase domains or full length constructs; made in house
Procedure, shortened: as §1

Tek = target: T6, Tek (Homo sapiens, UniProt Q02763); experiment: Kinase inhibition assay (33P transfer), Tek; details: read-out: Tek-1
T6 construct: Kinases are expressed as either kinase domains or full length constructs; made in house
Procedure, shortened: as §1

Hck-1 = target: T7, Hck-1 (Homo sapiens, UniProt P08631); experiment: Kinase inhibition assay (33P transfer), Hck; details: Table 6, Hck-1 kinase inhibition class
T7 construct: Kinases are expressed as either kinase domains or full length constructs; made in house
T7 sequence (P08631 whole entry, the tested form may be a part): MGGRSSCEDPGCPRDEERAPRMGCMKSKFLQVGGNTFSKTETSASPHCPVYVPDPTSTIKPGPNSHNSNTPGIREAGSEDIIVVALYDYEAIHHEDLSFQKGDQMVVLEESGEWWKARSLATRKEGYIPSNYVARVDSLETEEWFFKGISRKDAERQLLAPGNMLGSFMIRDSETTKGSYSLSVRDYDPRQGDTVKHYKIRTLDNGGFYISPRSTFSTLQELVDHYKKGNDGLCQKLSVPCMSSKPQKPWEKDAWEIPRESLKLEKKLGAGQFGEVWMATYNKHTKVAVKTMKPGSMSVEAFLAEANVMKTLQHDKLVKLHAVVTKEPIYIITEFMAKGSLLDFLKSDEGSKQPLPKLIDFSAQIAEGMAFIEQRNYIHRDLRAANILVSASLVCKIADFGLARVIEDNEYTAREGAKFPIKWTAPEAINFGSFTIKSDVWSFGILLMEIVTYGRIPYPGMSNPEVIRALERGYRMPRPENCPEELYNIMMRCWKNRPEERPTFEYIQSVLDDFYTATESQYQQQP

Zap-70 = target: T8, Zap-70 (Homo sapiens, UniProt P43403); experiment: Kinase inhibition assay (33P transfer), Zap-70; details: read-out: Zap-1
T8 construct: Kinases are expressed as either kinase domains or full length constructs; made in house
T8 sequence (P43403 1-619): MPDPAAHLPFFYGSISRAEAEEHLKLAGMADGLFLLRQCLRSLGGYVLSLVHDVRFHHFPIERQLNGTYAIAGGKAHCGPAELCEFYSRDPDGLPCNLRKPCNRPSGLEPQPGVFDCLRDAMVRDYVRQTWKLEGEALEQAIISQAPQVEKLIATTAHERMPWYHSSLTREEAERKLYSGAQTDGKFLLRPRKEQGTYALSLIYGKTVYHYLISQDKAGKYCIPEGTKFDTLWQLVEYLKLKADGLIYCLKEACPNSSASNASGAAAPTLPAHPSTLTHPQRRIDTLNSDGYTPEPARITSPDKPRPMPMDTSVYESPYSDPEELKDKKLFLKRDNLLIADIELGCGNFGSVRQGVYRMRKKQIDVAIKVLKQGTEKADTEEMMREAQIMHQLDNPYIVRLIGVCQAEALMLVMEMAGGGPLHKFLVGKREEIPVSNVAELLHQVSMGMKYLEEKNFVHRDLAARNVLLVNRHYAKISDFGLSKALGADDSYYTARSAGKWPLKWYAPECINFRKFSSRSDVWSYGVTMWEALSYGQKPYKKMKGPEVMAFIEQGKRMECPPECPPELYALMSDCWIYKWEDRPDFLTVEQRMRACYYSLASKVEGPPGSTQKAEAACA
Procedure, shortened: as §2

Itk = target: T9, Itk (Homo sapiens, UniProt Q08881); experiment: Kinase inhibition assay (33P transfer), Itk; details: read-out: Itk-1
T9 construct: Kinases are expressed as either kinase domains or full length constructs; made in house
T9 sequence (Q08881 1-620): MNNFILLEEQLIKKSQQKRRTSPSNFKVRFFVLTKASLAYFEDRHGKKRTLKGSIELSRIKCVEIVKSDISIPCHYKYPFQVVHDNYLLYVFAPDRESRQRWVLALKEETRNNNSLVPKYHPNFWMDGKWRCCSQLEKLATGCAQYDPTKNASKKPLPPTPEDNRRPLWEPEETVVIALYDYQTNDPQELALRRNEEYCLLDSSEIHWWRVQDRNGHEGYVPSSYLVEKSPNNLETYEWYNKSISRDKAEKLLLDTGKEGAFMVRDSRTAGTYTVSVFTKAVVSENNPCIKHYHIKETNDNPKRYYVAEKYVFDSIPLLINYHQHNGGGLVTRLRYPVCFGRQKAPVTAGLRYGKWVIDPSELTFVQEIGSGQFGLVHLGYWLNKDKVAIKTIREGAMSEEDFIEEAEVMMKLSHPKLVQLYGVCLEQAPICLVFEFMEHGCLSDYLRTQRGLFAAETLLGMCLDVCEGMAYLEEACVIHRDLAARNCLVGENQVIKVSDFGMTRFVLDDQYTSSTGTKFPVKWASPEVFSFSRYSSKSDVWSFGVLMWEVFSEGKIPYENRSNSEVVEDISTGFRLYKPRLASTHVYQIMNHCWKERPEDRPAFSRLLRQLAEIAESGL
Procedure, shortened: as §1

ErbB4 = target: T10, ErbB4 (Homo sapiens, UniProt Q15303); experiment: Kinase inhibition assay (33P transfer), ErbB4; details: read-out: ErbB4-1
T10 construct: Kinases are expressed as either kinase domains or full length constructs; made in house
T10 sequence (Q15303 26-1308, species assumed): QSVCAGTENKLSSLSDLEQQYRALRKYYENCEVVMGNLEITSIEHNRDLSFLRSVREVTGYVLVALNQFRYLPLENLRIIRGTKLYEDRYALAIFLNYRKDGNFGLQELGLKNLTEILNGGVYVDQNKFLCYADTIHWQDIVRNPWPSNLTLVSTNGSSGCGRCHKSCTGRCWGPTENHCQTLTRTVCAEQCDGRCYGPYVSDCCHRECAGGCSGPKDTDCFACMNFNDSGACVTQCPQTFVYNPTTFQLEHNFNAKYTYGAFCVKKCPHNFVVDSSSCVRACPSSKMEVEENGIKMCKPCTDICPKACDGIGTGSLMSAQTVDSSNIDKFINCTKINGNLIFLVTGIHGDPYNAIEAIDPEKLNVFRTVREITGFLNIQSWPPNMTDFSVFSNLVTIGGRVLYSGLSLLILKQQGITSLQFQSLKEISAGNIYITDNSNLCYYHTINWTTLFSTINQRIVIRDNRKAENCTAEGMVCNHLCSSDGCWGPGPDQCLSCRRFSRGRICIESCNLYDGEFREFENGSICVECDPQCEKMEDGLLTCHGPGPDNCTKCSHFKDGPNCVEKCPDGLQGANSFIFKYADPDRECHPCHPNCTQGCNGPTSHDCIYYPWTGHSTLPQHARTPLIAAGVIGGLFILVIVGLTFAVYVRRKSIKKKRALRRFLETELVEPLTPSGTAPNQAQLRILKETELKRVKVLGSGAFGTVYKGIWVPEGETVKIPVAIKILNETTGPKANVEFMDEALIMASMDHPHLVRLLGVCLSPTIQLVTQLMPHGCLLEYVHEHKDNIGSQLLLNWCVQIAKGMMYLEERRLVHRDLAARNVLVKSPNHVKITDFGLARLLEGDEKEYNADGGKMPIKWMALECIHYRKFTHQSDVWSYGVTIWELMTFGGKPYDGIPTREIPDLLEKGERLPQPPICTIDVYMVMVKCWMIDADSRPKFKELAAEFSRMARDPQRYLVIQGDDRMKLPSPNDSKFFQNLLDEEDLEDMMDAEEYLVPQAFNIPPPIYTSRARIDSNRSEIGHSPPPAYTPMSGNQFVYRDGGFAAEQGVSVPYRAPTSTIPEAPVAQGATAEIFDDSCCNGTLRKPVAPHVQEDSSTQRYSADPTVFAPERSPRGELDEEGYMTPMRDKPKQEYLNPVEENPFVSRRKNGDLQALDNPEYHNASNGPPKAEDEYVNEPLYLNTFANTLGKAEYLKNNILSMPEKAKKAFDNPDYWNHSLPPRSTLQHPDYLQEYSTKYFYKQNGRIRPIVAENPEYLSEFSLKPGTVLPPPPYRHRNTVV

Kdr = target: T11, Kdr (Homo sapiens, UniProt P35968); experiment: Kinase inhibition assay (33P transfer), Kdr; details: read-out: KDR-1
T11 construct: Kinases are expressed as either kinase domains or full length constructs; made in house
Procedure, shortened: as §2

Src = target: T12, Src (Homo sapiens, UniProt P12931); experiment: Kinase inhibition assay (33P transfer), Src; details: Table 6, Src-1 kinase inhibition class
T12 construct: Kinases are expressed as either kinase domains or full length constructs; made in house
Description: as §3, §4, §5

Flt-1 = target: T13, Flt-1 (Homo sapiens, UniProt P17948); experiment: Kinase inhibition assay (33P transfer), Flt-1
T13 construct: Kinases are expressed as either kinase domains or full length constructs; made in house
Description: as §3, §4, §5

Fyn = target: T14, Fyn (Homo sapiens, UniProt P06241); experiment: Kinase inhibition assay (33P transfer), Fyn; details: read-out: Fyn-1
T14 construct: Kinases are expressed as either kinase domains or full length constructs; made in house
T14 sequence (P06241 whole entry, species assumed, the tested form may be a part): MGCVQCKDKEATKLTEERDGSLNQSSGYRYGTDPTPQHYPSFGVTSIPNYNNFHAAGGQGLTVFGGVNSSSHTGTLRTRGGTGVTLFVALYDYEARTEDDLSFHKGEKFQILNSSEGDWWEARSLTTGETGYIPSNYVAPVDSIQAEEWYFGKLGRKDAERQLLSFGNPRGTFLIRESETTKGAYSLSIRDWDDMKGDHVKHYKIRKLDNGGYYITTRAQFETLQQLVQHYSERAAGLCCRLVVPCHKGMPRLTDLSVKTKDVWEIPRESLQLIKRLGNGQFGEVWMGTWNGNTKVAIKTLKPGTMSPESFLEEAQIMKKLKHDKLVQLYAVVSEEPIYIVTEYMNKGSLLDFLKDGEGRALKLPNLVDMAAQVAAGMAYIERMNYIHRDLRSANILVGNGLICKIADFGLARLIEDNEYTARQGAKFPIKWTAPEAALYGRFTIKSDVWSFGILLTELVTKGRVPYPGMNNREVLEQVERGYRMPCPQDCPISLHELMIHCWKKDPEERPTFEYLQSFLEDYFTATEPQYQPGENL
Description: as §3, §4, §5

PDGFRB = target: T15, PDGFRB (Homo sapiens, UniProt P09619); experiment: Kinase inhibition assay (33P transfer), PDGFRB; details: read-out: PDGFRB-1
T15 construct: Kinases are expressed as either kinase domains or full length constructs; made in house
T15 sequence (P09619 33-1106, species assumed): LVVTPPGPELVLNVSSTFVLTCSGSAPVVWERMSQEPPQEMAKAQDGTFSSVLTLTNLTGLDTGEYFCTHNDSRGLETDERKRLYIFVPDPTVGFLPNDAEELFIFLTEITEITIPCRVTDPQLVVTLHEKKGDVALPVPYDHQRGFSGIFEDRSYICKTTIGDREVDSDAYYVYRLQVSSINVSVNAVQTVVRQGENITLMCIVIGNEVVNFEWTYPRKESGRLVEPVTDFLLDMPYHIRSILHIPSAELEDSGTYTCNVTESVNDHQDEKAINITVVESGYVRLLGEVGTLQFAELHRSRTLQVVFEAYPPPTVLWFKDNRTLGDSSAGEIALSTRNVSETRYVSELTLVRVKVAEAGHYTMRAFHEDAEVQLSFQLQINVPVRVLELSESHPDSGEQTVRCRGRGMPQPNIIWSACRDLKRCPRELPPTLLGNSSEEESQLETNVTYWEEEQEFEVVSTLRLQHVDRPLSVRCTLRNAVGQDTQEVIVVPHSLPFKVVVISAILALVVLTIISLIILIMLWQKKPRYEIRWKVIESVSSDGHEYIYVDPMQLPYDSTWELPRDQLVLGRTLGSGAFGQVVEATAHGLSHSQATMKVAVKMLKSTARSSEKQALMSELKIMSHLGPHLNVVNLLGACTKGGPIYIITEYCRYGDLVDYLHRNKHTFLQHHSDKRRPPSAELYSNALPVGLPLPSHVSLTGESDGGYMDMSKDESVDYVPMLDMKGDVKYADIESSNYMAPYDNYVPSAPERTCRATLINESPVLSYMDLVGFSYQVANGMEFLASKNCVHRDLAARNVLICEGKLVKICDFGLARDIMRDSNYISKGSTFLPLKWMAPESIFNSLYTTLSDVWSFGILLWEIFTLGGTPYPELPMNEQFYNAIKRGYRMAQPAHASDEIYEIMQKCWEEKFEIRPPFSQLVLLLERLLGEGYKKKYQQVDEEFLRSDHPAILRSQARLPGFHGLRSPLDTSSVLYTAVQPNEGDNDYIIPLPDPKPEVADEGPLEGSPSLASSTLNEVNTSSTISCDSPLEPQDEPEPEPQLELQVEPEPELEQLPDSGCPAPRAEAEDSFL

AKT = target: T16, AKT (Homo sapiens, UniProt Q9Y243); experiment: Kinase inhibition assay (33P transfer), AKT; details: Table 2, kinase inhibition class; read-out: AKT3-1
T16 construct: Kinases are expressed as either kinase domains or full length constructs; made in house
T16 sequence (Q9Y243 whole entry, the tested form may be a part): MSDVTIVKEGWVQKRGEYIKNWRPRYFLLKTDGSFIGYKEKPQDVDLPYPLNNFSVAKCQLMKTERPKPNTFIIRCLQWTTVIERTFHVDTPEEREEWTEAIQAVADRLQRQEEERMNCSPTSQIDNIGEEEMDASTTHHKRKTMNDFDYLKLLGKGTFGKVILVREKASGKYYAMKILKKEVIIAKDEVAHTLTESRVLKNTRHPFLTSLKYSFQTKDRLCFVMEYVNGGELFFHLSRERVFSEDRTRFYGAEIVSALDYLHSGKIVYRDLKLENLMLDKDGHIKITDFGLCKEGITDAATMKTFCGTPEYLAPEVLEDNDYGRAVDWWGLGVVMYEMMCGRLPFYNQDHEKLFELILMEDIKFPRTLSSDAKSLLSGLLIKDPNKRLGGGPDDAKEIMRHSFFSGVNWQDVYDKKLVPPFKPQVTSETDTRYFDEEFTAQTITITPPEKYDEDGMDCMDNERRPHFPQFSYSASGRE
Procedure, shortened: as §2

IGFR-1 = target: T17, IGFR-1 (Homo sapiens, UniProt P08069); experiment: Kinase inhibition assay, IGFR-1 (Table 2); details: Table 2, kinase inhibition class
T17 construct: Kinases are expressed as either kinase domains or full length constructs; made in house

ErbB2 = target: T18, ErbB2 (Homo sapiens, UniProt P04626); experiment: Kinase inhibition assay (33P transfer), ErbB2; details: read-out: ErbB2-2
T18 construct: Kinases are expressed as either kinase domains or full length constructs; made in house
Procedure, shortened: as §1

SMILES | IC50 (EGFR) [µM] | IC50 (Lck; Table 3) [µM] | IC50 (Lyn) [µM] | IC50 (FGFR1) [µM] | IC50 (c-Met) [µM] | IC50 (Tek) [µM] | IC50 (Hck-1) [µM] | IC50 (Zap-70; Table 3) [µM] | IC50 (Itk; Table 3) [µM] | IC50 (ErbB4) [µM] | IC50 (Kdr; Table 3) [µM] | IC50 (Src) [µM] | IC50 (Flt-1) [µM] | IC50 (Fyn) [µM] | IC50 (PDGFRB) [µM] | IC50 (AKT) [µM] | IC50 (IGFR-1) [µM] | IC50 (ErbB2) [µM] | IC50 (Zap-70) [µM] | IC50 (Itk) [µM] | also measured
COc1cc(Nc2ncnc(-n3c(Nc4cc(C)n[nH]4)nc4ccccc43)n2)cc(OC)c1OC [Compound 401] | 0.845 to 5.07 | 0.845 to 5.07 | 0.845 to 5.07 | < 0.845 | 0.845 to 5.07 | 0.845 to 5.07 | 0.845 to 5.07 | 0.845 to 5.07 | < 0.845 | 0.845 to 5.07 | < 0.845 | 0.845 to 5.07 | < 0.845 | 0.845 to 5.07 | < 0.845 | > 9.5 |  |  |  |  | 
COc1cc(Nc2ncnc(-n3c(NC(C)C)nc4ccccc43)n2)cc(OC)c1OC [Compound 403] | > 10.3 | < 0.919 | < 0.919 | < 0.919 | > 10.3 | > 10.3 | > 10.3 | > 10.3 | > 10.3 | > 10.3 | < 0.919 | 0.919 to 5.51 | 0.919 to 5.51 | 0.919 to 5.51 | < 0.919 | > 10.3 |  |  |  |  | 
COc1cc(Nc2ncnc(-n3c(Nc4ccc5[nH]ncc5c4)nc4ccccc43)n2)cc(OC)c1OC [Compound 404] | 6.87 to 8.83 | 0.785 to 4.71 | 0.785 to 4.71 | < 0.785 | > 8.83 | > 8.83 | 6.87 to 8.83 | > 8.83 | 0.785 to 4.71 | > 8.83 | < 0.785 | 4.71 to 6.87 | < 0.785 | 0.785 to 4.71 | < 0.785 | 6.87 to 8.83 |  |  |  |  | 
COc1cc(Nc2ncnc(-n3c(Nc4ccc5cn[nH]c5c4)nc4ccccc43)n2)cc(OC)c1OC [Compound 406] | > 8.83 | 0.785 to 4.71 | 0.785 to 4.71 | < 0.785 | > 8.83 | > 8.83 | > 8.83 | > 8.83 | > 8.83 | > 8.83 | 0.785 to 4.71 | > 8.83 | 4.71 to 6.87 | 0.785 to 4.71 | 0.785 to 4.71 | > 8.83 |  |  |  |  | 
COc1cc(Nc2ncnc(N3CCCc4cc(C)ccc43)n2)cc(OC)c1OC [Compound 498] | < 0.982 |  | < 0.982 |  |  | 8.59 to 11 | > 11 |  |  | 0.982 to 5.89 |  | < 0.982 |  |  |  | > 11 | > 11 | 0.982 to 5.89 | > 11 | > 11 | 
COc1ccc(CNc2ncccc2-c2ncnc(Nc3cc(OC)c(OC)c(OC)c3)n2)nc1 [Compound 1085] | > 9.46 |  |  |  | > 9.46 | > 9.46 |  |  |  |  |  |  |  |  | 0.841 to 5.05 | > 9.46 | > 9.46 | > 9.46 | > 9.46 | > 9.46 | IC50 (Lck): 0.841 to 5.05 µM; IC50 (Kdr): < 0.841 µM
